Values of other authors in US10226421B2, “Pharmaceutical composition containing budesonide and formoterol” (Zambon S.P.A., priority 2013, dated 2019).

Conditions: phospholipids in the presence of a humidity

Point of comparison: CCCCCCCCCCCCCCCC(=O)OCC(COP(=O)(O)OCCN)OC(=O)CCCCCCCCCCCCCCC (stereo not drawn) [DPPE, dipalmitoyl-phosphatidylethanolamine], “glass-rubber transition temperatures (Tg)” value 63 °C. Against it:
- CCCCCCCCCCCCCCCCCC(=O)OC[C@H](COP(=O)([O-])OCC[N+](C)(C)C)OC(=O)CCCCCCCCCCCCCCCCC [DSPC, distearoyl-phosphatidylcholine] — lower, 55 °C
- CCCCCCCCCCCCCCCC(=O)OC[C@H](COP(=O)([O-])OCC[N+](C)(C)C)OC(=O)CCCCCCCCCCCCCCC [DPPC, dipalmitoyl-phosphatidylcholine] — lower, 41 °C
